{"source": "patent US9896437B2", "about": "“Diarylhydantoin compounds” (The Regents of the University of California, priority 2007, dated 2018)", "key": {"androgen receptor (AR) [1]": {"test_system": "androgen receptor (AR)", "type": "cell-based", "excerpt": "For example, the compounds can be subjected to tests using an artificial androgen receptor (AR) response reporter system in a hormone refractory prostate cancer cell line. The prostate cancer LNCaP cells are engineered to stably express about 5-fold higher level of AR than endogenous level. The exogenous AR has similar properties to endogenous AR in that both are stabilized by a synthetic androgen R1881. […] The antagonistic activity of the compounds for which the synthesis is described above can be examined in the presence of 100 pM of R1881. Engineered LNCaP cells (LNCaP-AR, also abbreviated LN-AR) are maintained in Iscove's medium containing 10% fetal bovine serum (FBS). Two days prior to drug treatment, the cells are grown in Iscove's medium containing 10% charcoal-stripped FBS (CS-FBS) to deprive of androgens. The cells are split and grown in Iscove's medium containing 10% CS-FBS with 100 pM of R1881 and increasing concentrations of test compounds. After two days of incubation, reporter activities are assayed.\nTo determine agonistic activities of different compounds, the stimulating activities on androgen receptor (AR) using the AR response reporter as the measure in the LN-AR system in the absence of R1881 can be examined."}, "androgen receptor (AR) [2]": {"test_system": "androgen receptor (AR)", "type": "cell-based", "text": "The LNCaP-AR cells are a line of lymph node carcinoma of prostate cells transduced with a plasmid that makes express androgen receptors.", "remark": "listed apart in the source"}, "[3]": {"test_system": "LNCaP cells with overexpressed AR (LN-AR)", "test": "MTS assay of growth of LNCaP-AR cells", "description": "LNCaP-AR cells can be maintained in Iscove's medium containing 10% FBS. The compounds are examined for their effect on growth of hormone refractory prostate cancer cells. Overexpressed LNCaP cells are used because these cells behave as hormone refractory prostate cancer cells in vitro and in vivo. Mitochondria activity by MTS assay is measured, a surrogate for growth. LNCaP cells with overexpressed AR (LN-AR) are maintained in Iscove's medium containing 10% FBS. Two days prior to drug treatment, the cells are grown in Iscove's medium containing 10% CS-FBS to deprive of androgens. The cells are then split and grown in Iscove's medium containing 10% CS-FBS with appropriate concentrations of R1881 and increasing concentrations of the test compounds. After four days incubation, cell growth is monitored by MTS (Promega, Madison, Wis.).\nThe inhibitory effect of compounds on growth of hormone refractory prostate cancer in the presence of 100 pM of R1881 is measured."}, "hormone refractory LAPC4": {"test_system": "hormone refractory LAPC4", "test": "Hormone refractory LAPC4 xenograft model", "conditions": "compared with vehicle", "excerpt": "Compounds can also be tested in another xenograft model of hormone refractory prostate cancer, hormone refractory LAPC4. This model is established from passaging of hormone sensitive prostate cancer in castrated mice, which mimics the clinical progression of prostate cancer."}, "androgen receptor (AR) [4]": {"molecular_target": "androgen receptor (AR) (Homo sapiens, UniProt P10275, T878A)", "sequence (P10275 whole entry T878A)": "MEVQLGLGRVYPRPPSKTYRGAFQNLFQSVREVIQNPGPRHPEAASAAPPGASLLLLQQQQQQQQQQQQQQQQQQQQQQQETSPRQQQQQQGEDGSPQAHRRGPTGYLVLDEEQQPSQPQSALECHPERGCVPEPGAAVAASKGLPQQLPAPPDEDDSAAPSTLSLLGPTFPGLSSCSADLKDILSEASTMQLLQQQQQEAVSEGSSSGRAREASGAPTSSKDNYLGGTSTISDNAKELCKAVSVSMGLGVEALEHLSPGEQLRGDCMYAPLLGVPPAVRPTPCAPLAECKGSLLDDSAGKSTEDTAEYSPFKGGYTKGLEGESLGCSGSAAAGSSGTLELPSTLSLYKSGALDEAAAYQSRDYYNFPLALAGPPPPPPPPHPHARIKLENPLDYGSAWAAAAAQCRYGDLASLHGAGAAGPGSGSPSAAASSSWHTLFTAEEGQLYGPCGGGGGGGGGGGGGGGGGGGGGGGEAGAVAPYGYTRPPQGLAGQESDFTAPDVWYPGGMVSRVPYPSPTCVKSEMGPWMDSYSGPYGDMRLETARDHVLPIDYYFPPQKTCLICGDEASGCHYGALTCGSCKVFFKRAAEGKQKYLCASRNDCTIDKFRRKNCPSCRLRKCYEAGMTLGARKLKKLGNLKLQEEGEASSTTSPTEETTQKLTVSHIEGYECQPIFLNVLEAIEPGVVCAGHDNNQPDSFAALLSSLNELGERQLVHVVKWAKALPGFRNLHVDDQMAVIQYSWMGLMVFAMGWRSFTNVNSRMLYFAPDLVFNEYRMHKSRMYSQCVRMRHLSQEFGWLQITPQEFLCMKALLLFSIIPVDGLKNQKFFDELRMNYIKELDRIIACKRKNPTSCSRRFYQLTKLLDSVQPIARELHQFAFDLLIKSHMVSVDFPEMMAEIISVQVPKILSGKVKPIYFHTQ", "conditions": "parental LNCaP cells"}, "LNCaP cells": {"test_system": "LNCaP cells", "test": "MTS assay of growth of parental, hormone sensitive LNCaP cells"}}, "data": [{"compound": "CC1(C)C(=O)N(c2ccc(C#N)c(C(F)(F)F)c2)C(=S)N1CCCCO", "note": "[RU59063]", "values": [{"measurement": "agonistic activity on AR (AR response reporter)", "setting": "androgen receptor (AR) [1]; LN-AR system, hormone refractory, absence of R1881", "value": "can activate AR"}, {"measurement": "stimulation of PSA expression (agonistic activity)", "setting": "androgen receptor (AR) [2]; hormone refractory prostate cancer, absence of R1881", "value": "can stimulate PSA expression"}]}, {"compound": "CC(O)(CS(=O)(=O)c1ccc(F)cc1)C(=O)Nc1ccc(C#N)c(C(F)(F)F)c1", "note": "(stereo not shown) [Bicalutamide]", "values": [{"measurement": "inhibitory effect on growth of hormone refractory prostate cancer", "setting": "[3]; presence of 100 pM of R1881, MTS", "value": "does not inhibit"}, {"measurement": "inhibition of PSA expression", "setting": "hormone refractory LAPC4", "value": "does not inhibit"}, {"measurement": "inhibition of growth", "setting": "hormone refractory LAPC4", "value": "does not inhibit"}]}, {"compound": "C[C@]1(O)CC[C@H]2[C@@H]3CCC4=CC(=O)CCC4=C3C=C[C@@]21C", "note": "[R1881]", "values": [{"measurement": "reporter activity response to androgen", "setting": "androgen receptor (AR) [1]; LNCaP-AR cells", "value": "responds to low concentration"}, {"measurement": "concentration that strongly induces the secreted PSA level", "setting": "androgen receptor (AR) [2]; LNCaP-AR cells", "value": 25, "unit": "pM"}, {"measurement": "concentration at which PSA is first induced", "setting": "androgen receptor (AR) [4]", "value": 100, "unit": "pM"}, {"measurement": "concentration that stimulates growth", "setting": "[3]; AR-overexpressed LNCaP, MTS", "value": 25, "unit": "µM"}, {"measurement": "concentration at which growth is first stimulated", "setting": "LNCaP cells", "value": 100, "unit": "µM"}]}]}
